Measured values published in PMC5748833, “Synthesis and Biological Evaluation of Novel Hybrid Molecules Containing Purine, Coumarin and Isoxazoline or Isoxazole Moieties” (The Open Medicinal Chemistry Journal, 2017).

Legend:
[1] = Competition of the tested compounds with DMSO for hydroxyl radicals; details: 100 μM compound, Fe3+/ascorbic acid, 30 min, 37°C; 100 µM
Protocol: 2.2.2.2 Competition of the tested compounds with DMSO for hydroxyl radicals
The hydroxyl radicals generated by the Fe ^3+ /ascorbic acid system, were detected according to Nash, by the determination of formaldehyde produced from the oxidation of DMSO. The reaction mixture contained EDTA (0.1 mM), Fe ^3+ (167 μM), DMSO (33 mM) in phosphate buffer (50 mM, pH 7.4), the tested compounds (concentration 0.1mM) and ascorbic acid (10 mM). After 30 min of incubation (37°C) the reaction was stopped with CCl3COOH (17% w/v) (Table 5). Trolox was used as a standard.
Superoxide (O2^-.) anion and hydroxyl radical (^.OH) are free radical species of potential importance. In the acidic conditions of ischemic brain, O2^-. is probably protonated to give HO2^-. species. Iron released from damaged brain cells is more likely to be readily available to catalyze the generation of OH radicals. Among the ROS, the hydroxyl (^•OH) free radical is possibly the most toxic, as it reacts with a number of biological important molecules. Polyunsaturated fatty acids are found in high concentrations in the CNS, and are particularly vulnerable by free radicals. Thus, we tried to test the ability of our compounds to scavenge hydroxyl radicals. […] All the derivatives of series 13 (except of 13i) present high antioxidant activity (80-100%) which is not able to be correlated with any specific structural characteristic since all contain a coumarin, a purine and an isoxazolyl moiery. […] It seems that the overall molar configuration influences the response. However, antioxidants with hydrophilic or lipophilic character are both needed to act as radical scavengers in the aqueous phase or as chain-breaking antioxidants in biological membranes.

[2] = molecular target: T1, soybean lipoxygenase (Glycine max, UniProt P08170); experiment: Soybean lipoxygenase inhibition in vitro; type: biochemical; details: for IC50: read-out: LOX IC50 μΜ
T1 construct: purchased Sigma Chemical, Co. (St. Louis, MO, USA)
T1 sequence (P08170 1-839): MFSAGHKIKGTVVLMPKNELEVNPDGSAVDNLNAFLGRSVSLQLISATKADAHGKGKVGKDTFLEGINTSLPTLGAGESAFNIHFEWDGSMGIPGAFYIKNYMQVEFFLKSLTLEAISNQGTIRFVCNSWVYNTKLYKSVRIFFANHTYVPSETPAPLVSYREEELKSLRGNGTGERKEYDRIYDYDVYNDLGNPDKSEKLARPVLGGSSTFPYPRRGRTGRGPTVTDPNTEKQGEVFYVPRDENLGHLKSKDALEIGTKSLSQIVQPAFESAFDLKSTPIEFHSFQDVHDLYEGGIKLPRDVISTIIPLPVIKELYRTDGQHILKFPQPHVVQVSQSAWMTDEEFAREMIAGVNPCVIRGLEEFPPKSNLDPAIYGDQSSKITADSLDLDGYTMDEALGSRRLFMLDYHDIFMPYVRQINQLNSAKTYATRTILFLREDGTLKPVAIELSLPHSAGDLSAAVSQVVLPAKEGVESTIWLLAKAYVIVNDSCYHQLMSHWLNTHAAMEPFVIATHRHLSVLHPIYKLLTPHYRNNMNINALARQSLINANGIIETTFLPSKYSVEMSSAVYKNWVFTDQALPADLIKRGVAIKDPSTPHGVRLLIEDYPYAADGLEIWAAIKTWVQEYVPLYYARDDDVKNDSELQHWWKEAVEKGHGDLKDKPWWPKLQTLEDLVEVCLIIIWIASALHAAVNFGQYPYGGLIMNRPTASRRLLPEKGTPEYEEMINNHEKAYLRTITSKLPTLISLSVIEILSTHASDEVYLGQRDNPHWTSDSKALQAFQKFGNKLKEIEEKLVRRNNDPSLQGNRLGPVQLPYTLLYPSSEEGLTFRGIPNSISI

[3] = molecular target: T2, equine serum butyrylcholinesterase (esBChE) (Equus caballus, UniProt P81908); experiment: Inhibition of esBChE (Ellman's test); type: biochemical; details: read-out: esBChE % inhibn. @ 10 μΜ
T2 construct: purchased Sigma; host or cells: equine serum
Source text: 2.2.2.5 Inhibition Study on ChEs in vitro
In vitro inhibition of electric eel acetylcholinesterase (eeAChE; 463 U/mg, Sigma) and equine serum butyrylcholinesterase (esBChE; 13 U/mg, Sigma) was investigated with a 96-well plate procedure based on the classical Ellman’s spectrophotometric test, as already described.

[4] = molecular target: T3, rat monoamine oxidase A (Rattus norvegicus, UniProt P21396); experiment: Inhibition of MAO-A (spectrofluorimetric method); type: biochemical; details: 10 μM compound
T3 construct: from tissue
T3 sequence (P21396 1-526): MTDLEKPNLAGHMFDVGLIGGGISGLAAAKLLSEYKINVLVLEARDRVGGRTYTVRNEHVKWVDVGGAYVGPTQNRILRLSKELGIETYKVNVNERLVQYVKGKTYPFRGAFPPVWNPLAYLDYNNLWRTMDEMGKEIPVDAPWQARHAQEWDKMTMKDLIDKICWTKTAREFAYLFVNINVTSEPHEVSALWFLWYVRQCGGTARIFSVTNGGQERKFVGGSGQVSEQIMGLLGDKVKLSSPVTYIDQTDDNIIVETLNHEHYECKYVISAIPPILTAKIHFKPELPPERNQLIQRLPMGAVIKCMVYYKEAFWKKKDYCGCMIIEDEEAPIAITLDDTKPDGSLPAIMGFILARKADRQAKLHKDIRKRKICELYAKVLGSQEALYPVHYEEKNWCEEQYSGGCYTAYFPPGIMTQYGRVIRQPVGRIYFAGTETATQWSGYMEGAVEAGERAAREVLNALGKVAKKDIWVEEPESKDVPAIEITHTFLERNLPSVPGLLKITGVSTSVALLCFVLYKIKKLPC
Source text: 2.2.2.6 Inhibition Study on MAOs in vitro
Inhibition of rat monoamine oxidase A and B was studied by means of a spectrofluorimetric method as previously detailed.

T2 sequence (P81908 whole entry): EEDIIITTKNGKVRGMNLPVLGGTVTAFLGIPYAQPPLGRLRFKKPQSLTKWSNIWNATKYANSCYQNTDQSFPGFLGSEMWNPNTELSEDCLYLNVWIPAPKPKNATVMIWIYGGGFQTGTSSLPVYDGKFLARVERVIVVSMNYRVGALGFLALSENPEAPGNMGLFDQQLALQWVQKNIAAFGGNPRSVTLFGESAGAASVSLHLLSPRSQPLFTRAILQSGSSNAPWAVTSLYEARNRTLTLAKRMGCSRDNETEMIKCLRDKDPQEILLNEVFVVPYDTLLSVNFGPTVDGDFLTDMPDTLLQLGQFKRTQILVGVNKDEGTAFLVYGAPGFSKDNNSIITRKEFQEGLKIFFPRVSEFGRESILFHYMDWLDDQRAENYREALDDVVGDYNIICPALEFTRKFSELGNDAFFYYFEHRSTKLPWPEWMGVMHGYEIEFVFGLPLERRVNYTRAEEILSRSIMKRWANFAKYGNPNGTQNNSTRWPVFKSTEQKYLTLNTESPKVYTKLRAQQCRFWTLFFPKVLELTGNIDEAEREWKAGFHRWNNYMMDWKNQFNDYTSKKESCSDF

O=c1cc(OCC2CC(Cn3cnc4c(N5CCCCC5)ncnc43)=NO2)c2ccccc2o1 (stereo not drawn) [4f]
∙ΟΗ % @ 100μΜ (hydroxyl radical scavenging, percent inhibition of formaldehyde production) [1]: did not present any activity and no
IC50 [2]: 53 µM
inhibition at 10 µM [3]: 36%
MAO-A (%) @ 10μΜ [4]: no

Cc1cc(=O)oc2ccc(OCC3=NOC(Cn4cnc5c(Cl)ncnc54)C3)cc12 (stereo not drawn) [11b]
∙ΟΗ % @ 100μΜ (hydroxyl radical scavenging, percent inhibition of formaldehyde production) [1]: did not present any activity and no
%LOX @ 100μΜ ([2]; 100 μM compound): no
inhibition at 10 µM [3]: 8%
MAO-A (%) @ 10μΜ [4]: 15%

O=c1cc(OCc2cc(Cn3cnc4c(N5CCOCC5)ncnc43)no2)c2ccccc2o1 [13i]
∙ΟΗ % @ 100μΜ (hydroxyl radical scavenging, percent inhibition of formaldehyde production) [1]: did not present any activity and no
IC50 [2]: 76 µM
inhibition at 10 µM [3]: 18%
MAO-A (%) @ 10μΜ [4]: 6%
